Test results as given in paper PMC3422259, “Additive Mixture Effects of Estrogenic Chemicals in Human Cell-Based Assays Can Be Influenced by Inclusion of Chemicals with Differing Effect Profiles” (PLoS ONE, 2012).
Where two headings read alike, the source gives them in different places.

Key:
[1] = test system: T47D-KBluc cells; assay: cells; parameters: Emax: dose or concentration left out as unconfirmed
Protocol: T47D-KBluc cells were obtained from the ATCC and the protocol established by the depositing authors was followed. Cells were routinely grown in RPMI media (with 10% foetal calf serum (FCS)). For seven days prior to experiments, cells were maintained in low estrogen conditions by the use of pre-assay media (RPMI, 10% charcoal-dextran stripped FCS, no antibiotics). For experiments, cells were seeded in white polystyrene 96 well plates at a density of 10,000 cells/well and allowed to attach for 24 hours before removal of media, and application of test chemicals. Test chemicals were dissolved in ethanol to give stock solutions of millimolar concentrations. Test and control solutions were obtained by dilution of ethanolic stocks in dosing media (phenol red-free RPMI, 5% charcoal-dextran stripped FCS, no antibiotics), and in all cases the final concentration of ethanol was 0.5%. The positive control was 1 nM estradiol. Positive and vehicle controls were run as eight replicate wells per plate, and compounds were tested in a dilution series comprising eight concentrations, each concentration tested in triplicate. As recommended by Wilson et al. two additional controls were also included on each plate: 1) vehicle control plus an antiestrogen, ICI 182,780 (1 µM), and 2) positive control plus ICI 182,780 (1 µM). […] A crude measure of toxicity was provided by comparing values for treatments that were not positive, with the value of the vehicle control. […] 24 hours after application of test and control solutions, a volume of Steady-Glo assay reagent (Promega) equal to the volume of culture media was added and plates were incubated for ten minutes, with shaking, to allow for cell lysis. Plates were then loaded into a plate reader (FLUOstar Optima, BMG Labtech) and incubated for a further ten minutes in the dark, followed by measurement of luminescence. To reduce variation, the temperature of the plate reader chamber was maintained at 27°C throughout.
(§1) Experiments were performed on different days meaning that results for different dilution series and different batches of the test chemicals were obtained on different days. Each single chemical was tested in three or more independent experiments. Use of normalisation meant that data from different experiments could be reliably combined and compared, as discussed previously. Data was expressed relative to the positive control, rather than as fold change from the vehicle response, for two reasons.
Effect concentrations (ECx) were defined relative to the effects of the estradiol concentration used as the positive control, for example EC50 is the concentration producing an effect of 50% of the positive control (estradiol, 1 nM (ERLUX) or 25 nM (ESCREEN)).
(§2) Results from regression analysis for each test chemicals were used to predict the CA effect for fixed-ratio mixtures designed on 1) equi-effective concentrations (balanced design), 2) possible human serum levels (non-balanced design). The original mathematical formulation of CA that defines for a mixture composed of n components with concentration c1 of the first component, c2 of the second component, and cn for the n-th component a combination effect X is [drawing 1] (1) Here, ECX1, ECX1 …, ECXn are the concentrations of the individual components that on their own produce the same effect X as the mixture, [15] The quotients cn/ECXn are called toxic units and scale all compounds in the mixture relative to their toxicity. They can be interpreted as the contribution of the compound to the total mixture concentration that is expected to produce the mixture effect X. According to equation 1, a mixture effect for a pre-defined effect level X is described only implicitly.

[2] = test system: MCF-7 cells; assay: Estrogenicity assay, mitogenic endpoint (ESCREEN); parameters: Emax: dose or concentration left out as unconfirmed
Protocol: The ESCREEN assay was performed using cloned MCF-7 cells (described in [6], gifted from A. Soto, Boston) and the established ESCREEN method was followed using an adapted 96-well format. Cells were cultured in DMEM (5% FCS). For experiments, cells were seeded in clear polystyrene 96 well plates at a density of 2,500 cells/well and allowed to attach for 24 hours before washing with rinse media (phenol red-free DMEM, no supplements). […] Test chemicals were dissolved in ethanol to give stock solutions of millimolar concentrations. Test and control solutions were diluted prior to application in dosing media (phenol red free DMEM, 10% charcoal-dextran stripped FCS). The final concentration of ethanol was 0.5% in test and control wells. […] At all stages, media removal from cells was carried out gently and in a controlled fashion by use of an electronic multichannel pipette set to the lowest speed possible. Controls were run as eight replicate wells per plate and compounds were tested in a dilution series comprising eight concentrations, each concentration tested in two replicate wells per plate. The plate layout was designed to reduce variation due to evaporation and spreading of test chemicals, and had been previously optimised in the laboratory. After application of test solutions, plates were incubated for 120 hours before fixation with 10% trichloroacetic acid and sulforhodamine B (SRB) staining to measure protein and allow the indirect quantification of cell number.
as §1
as §2, with “implicitly. However, if the individual concentrations ci are expressed as relative fractions pi to the total mixture concentration ECxMix, then equation 1 can be re-arranged to [drawing 2] (2) which allows the direct calculation of the mixture concentration that is expected to produce the mixture effect X. To form a prediction curve, equation 2 is iterated through for various effect levels resulting in sets of effects and their associated predicted mixture concentration which are then plotted to produce a graph of the effect prediction.” for “implicitly.”
Both equations 1 and 2 require knowledge of the concentration of each mixture component that on its own produces the effect magnitude under consideration. For this reason, these equations cannot be used for predicting mixture effects that exceed the maximal effect of the least efficacious component, because those effect concentrations cannot be defined.

[3] = Homo sapiens, read-out: Concentration Response Function θ^∧ max
[4] = Homo sapiens, MCF7, read-out: Concentration Response Function θ^∧ max
[5] = Homo sapiens, MCF7, read-out: Maxima at effect levels relative to that of estradiol (submaximal response)
[6] = Homo sapiens, read-out: Supramaximal response, of estradiol maxima

Compound	EC10 ([1]; Homo sapiens, 24 h) [nM]	EC25 ([1]; Homo sapiens, 24 h) [nM]	Emax [1, 3] [%]	EC10 ([2]; Homo sapiens, MCF7, 120 h) [nM]	EC25 ([2]; Homo sapiens, MCF7, 120 h) [nM]	Emax [2, 4] [%]	Emax [2, 5] [%]	Emax [1, 6] [%]	EC10 ([1]; ERLUX, concentration producing 10% effect relative to positive control 1 nM estradiol, 24 hours) [nM]	EC25 ([1]; ERLUX, concentration producing 25% effect relative to positive control 1 nM estradiol, 24 hours) [nM]	Concentration Response Function θ^∧ max ([1]; ERLUX, estimated maximal model asymptote, effect relative to positive control (1 nM estradiol))	EC10 ([2]; ESCREEN, concentration provoking 10% effect relative to positive control 25 nM estradiol, 120 hours) [nM]	EC25 ([2]; ESCREEN, concentration provoking 25% effect relative to positive control 25 nM estradiol, 120 hours) [nM]	Concentration Response Function θ^∧ max ([2]; ESCREEN, estimated maximal model asymptote, effect relative to positive control (25 nM estradiol))
Cc1ccc(/C=C2/C(=O)C3(C)CCC2C3(C)C)cc1 (centres unmarked) [4MBC, 4-methylbenzylidene camphor]	1810	5000	82	899	2210	63	60 to 70							
Brc1ccc(Oc2c(Br)cc(Br)cc2Br)c(Br)c1 [BDE100, Brominated diphenyl ether-100]	5360	12800	172	704	2410	71								
COc1ccc(C(=O)c2ccccc2)c(O)c1 [Benzophenone-3]	2270	4610	177	1300	4310	63	60 to 70	150						
CC(C)(c1ccc(O)cc1)c1ccc(O)cc1 [Bisphenol A]	155	258	144	45.2	81.8	121		150						
CCCCOC(=O)c1ccc(O)cc1 [Butylparaben]	497	881	331	571	1320	101		300						
O=c1oc2cc(O)ccc2c2oc3cc(O)ccc3c12 [Coumestrol]	1.58	3.42	101	1.56	5	131								
C#C[C@]1(O)CC[C@H]2[C@@H]3CCc4cc(O)ccc4[C@H]3CC[C@@]21C [EE2, Ethinyl estradiol, reference compound]	0.000651	0.00132	105	0.000635	0.00181	114								
OC[C@H](Cc1cccc(O)c1)[C@H](CO)Cc1cccc(O)c1 [Enterodiol]				3850	7450	45								
O=C1OC[C@H](Cc2cccc(O)c2)[C@H]1Cc1cccc(O)c1 [Enterolactone]	3770	8180	104	4150	7220	139								
C[C@]12CC[C@@H]3c4ccc(O)cc4CC[C@H]3[C@@H]1CC[C@@H]2O [Estradiol, reference compound]	0.000653	0.00145	123	0.00112	0.00312	133								
c1ccc2c(c1)-c1cccc3cccc-2c13 [Fluoranthene]	60000		16	33900	88500	38								
CC1COCc2cc3c(cc21)C(C)(C)C(C)C3(C)C (centres unmarked) [Galaxolide, Galaxolide (HHCB)]	3930	7730	91	5390	12300	69								
O=c1c(-c2ccc(O)cc2)coc2cc(O)cc(O)c12 [Genistein]	12.4	19.6	148	4.61	13.6	93		200						
COC(=O)c1ccc(O)cc1 [Methylparaben]	8140	17100	206	7640	18000	79								
O=C1C[C@@H](c2ccc(O)cc2)Oc2cc(O)cc(O)c21 [Naringenin]	310	506	114	360	833	110								
CCCOC(=O)c1ccc(O)cc1 [Propylparaben]	1300	2210	260	997	2160	109								
Tonalide (AHTN)									3610	206000	0.28	1970	6130	0.46
